Measured values published in patent publication US20250288548A1, “INTRANASAL BACLOFEN” (THE REGENTS OF THE UNIVERSITY OF CALIFORNIA, priority 2022, published 2025).

Legend:
[1] = system: patients with new acquired brain injury; test: Intranasal baclofen study in about 40 hospitalized patients (measured torque response, clinical response); assay type: in vivo, human
From the text: FIG. 1 represents the summarized results of a study of about 40 patients. Grey bars represent patients treated with nasal baclofen, and white bars represent placebo. Bars to the left (negative) represent reduced tone, and right (positive) is worse tone. The middle line is no change. Statistically significant results are provided with error bars in this figure.
The first bar chart from left to right is baseline compared to visit 2 low dose (250 mcg). The second bar chart from left to right is baseline compared to visit 3 moderate dose (1000 mcg). The third bar chart from left to right is baseline compared to visit 4 high dose (2000 mcg). The fourth bar chart from left to right is baseline compared to visit 5 weaned off back to baseline (providing some residual effect). The p-values for the third panel, which represents the high dose are: Treatment p-value 0.004959, and Control p-value 0.232.
Forty (40) hospitalized patients with new acquired brain injury acutely treated in the PICU have been treated with intranasal baclofen. Aqueous intranasal solutions comprising 250 mcg, 1000 mcg, and/or 2000 mcg of baclofen and […] of sodium chloride per mL exploiting the nasal pathway have delivered baclofen to the CNS by circumventing the BBB. […]

[2] = system: patient with increased tone after explantation of intrathecal baclofen pump; test: Individual intranasal baclofen test dose in PICU patient; assay type: in vivo, human; conditions: gablofen 2-50 mcg vials delivered intranasally as one administration; all enteral medications held
From the text: A patient was admitted to a pediatric intensive care unit (PICU) due to increased tone after the patient had underwent surgical explantation of an intrathecal baclofen pump. The patient was on maximum doses of several enteral medications including enteral baclofen. They were given a test dose of intranasal baclofen administered in the PICU using commercially prepared intrathecal baclofen for test dose (gablofen 2-50 mcg vials delivered intranasally as one administration).

[3] = enteral doses ranging from 30 to 90 mg; cited from earlier work
[4] = at therapeutically effective intrathecal concentrations; cited from earlier work
[5] = solutions containing phosphate, sulfate, potassium, or magnesium; per U.S. Pat. No. 9,180,108 (also printed: greater than 4, 5, 6, 7 mg/mL); cited from earlier work
[6] = excised bovine nasal tissues; concentration independent transport, no polarized flux; cited from earlier work

NCC(CC(=O)O)c1ccc(Cl)cc1 (centres unmarked) [baclofen, 4-amino-3-(p-chlorophenyl) butyric acid]
response compared with enteral baclofen ([1]; intranasal 250, 1000 and/or 2000 mcg solutions, versus maximized enteral baclofen dose (>90 mg/day)): far greater than that observed with enteral baclofen
sedation compared with enteral baclofen ([1]; intranasal administration): far less sedation
change in tone after intranasal test dose [2]: Significant improvement in tone
CSF levels [3]: 0.012 to 0.096 µg/mL
plasma levels [3]: 50 to 650 ng/mL
plasma concentrations with intrathecal injection relative to oral/enteral administration [4]: 100 times less
concentration of baclofen that can be dissolved [5]: greater than 2 mg/mL
mechanism of absorption across nasal tissues [6]: primarily absorbed via simple passive diffusion
